From BindingDB's records for patent US12128018 (Kdac Therapeutics, 2024)

Key:
Assay in all cases: Inhibition of Histone Deacetylase Enzymatic Activity
[1] = molecular target: T1, Histone deacetylase 6 (Homo sapiens, UniProt Q9UBN7)
T1 sequence (Q9UBN7 whole entry): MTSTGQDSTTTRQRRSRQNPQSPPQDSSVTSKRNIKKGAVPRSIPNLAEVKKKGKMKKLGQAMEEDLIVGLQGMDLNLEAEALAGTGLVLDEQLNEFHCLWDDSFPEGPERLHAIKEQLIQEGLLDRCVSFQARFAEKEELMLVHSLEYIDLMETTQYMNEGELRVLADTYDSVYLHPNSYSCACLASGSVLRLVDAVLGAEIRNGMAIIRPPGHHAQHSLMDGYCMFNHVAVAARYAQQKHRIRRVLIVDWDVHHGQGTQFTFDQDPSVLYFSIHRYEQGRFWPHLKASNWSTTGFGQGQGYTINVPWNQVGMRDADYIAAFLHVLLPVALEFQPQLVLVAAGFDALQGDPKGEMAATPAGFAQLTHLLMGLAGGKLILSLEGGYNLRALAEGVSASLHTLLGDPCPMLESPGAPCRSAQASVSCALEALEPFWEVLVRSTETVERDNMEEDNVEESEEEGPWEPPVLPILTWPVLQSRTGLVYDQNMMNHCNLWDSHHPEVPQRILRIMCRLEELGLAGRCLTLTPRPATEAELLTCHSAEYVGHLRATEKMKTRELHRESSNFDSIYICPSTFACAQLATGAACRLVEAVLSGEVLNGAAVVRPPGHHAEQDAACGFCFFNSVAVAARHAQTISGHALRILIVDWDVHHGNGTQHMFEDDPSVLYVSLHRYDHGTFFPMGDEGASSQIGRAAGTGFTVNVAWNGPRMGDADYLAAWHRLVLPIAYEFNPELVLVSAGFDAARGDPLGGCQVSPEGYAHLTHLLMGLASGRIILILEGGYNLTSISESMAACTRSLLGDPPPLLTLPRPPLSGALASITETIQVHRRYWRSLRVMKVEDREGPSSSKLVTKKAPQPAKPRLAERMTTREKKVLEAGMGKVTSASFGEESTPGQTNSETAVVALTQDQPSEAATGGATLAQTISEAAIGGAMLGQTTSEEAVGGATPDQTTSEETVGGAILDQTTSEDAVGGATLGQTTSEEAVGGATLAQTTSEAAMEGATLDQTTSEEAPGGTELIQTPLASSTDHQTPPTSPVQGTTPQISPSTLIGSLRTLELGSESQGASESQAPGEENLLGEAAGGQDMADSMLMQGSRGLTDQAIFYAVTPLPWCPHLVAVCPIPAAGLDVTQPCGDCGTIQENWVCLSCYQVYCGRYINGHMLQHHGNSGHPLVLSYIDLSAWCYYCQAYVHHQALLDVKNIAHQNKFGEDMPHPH
Method: (§1) Its final concentration in the assay for HDACs 1,2,3,6 is 2 μM.Substrate B was prepared as 2 mM in 100% DMSO. Its final concentration in the assay for HDACs 4,5,7,8,9 is 2 μM.LBH was used as quench inhibitor to stop the reaction at the end point.

[2] = molecular target: Histone deacetylase 9 (Homo sapiens, UniProt Q9UKV0)
Histone deacetylase 9, sequence (Q9UKV0 whole entry): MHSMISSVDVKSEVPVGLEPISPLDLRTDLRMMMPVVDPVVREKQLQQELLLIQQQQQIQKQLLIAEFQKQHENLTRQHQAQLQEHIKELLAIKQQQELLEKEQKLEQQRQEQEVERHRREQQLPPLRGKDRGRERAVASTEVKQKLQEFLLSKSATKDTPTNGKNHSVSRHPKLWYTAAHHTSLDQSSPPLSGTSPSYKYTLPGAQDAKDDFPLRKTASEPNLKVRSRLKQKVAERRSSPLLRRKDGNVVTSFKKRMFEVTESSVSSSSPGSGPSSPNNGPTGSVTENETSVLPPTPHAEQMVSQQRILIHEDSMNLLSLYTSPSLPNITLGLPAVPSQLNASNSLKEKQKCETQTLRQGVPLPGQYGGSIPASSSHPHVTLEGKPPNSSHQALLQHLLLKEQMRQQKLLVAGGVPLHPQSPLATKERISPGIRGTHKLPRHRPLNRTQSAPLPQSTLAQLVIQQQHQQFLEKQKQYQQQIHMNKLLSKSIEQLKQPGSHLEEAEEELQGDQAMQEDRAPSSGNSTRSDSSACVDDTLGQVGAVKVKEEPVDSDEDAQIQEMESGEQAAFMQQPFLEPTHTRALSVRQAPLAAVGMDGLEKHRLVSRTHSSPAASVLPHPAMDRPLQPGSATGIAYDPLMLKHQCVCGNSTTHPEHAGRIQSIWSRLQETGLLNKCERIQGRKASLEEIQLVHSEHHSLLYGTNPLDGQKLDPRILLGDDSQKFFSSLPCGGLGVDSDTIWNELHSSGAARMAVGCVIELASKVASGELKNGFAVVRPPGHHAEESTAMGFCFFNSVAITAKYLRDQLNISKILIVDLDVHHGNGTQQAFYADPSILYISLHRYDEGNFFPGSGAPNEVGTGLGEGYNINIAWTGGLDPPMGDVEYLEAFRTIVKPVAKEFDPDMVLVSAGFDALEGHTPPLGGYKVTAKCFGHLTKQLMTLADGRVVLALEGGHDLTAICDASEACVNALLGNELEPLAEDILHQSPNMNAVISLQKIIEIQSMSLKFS
Method: as §1

[3] = molecular target: T2, Histone deacetylase 8 (Homo sapiens, UniProt Q9BY41)
T2 sequence (Q9BY41 whole entry): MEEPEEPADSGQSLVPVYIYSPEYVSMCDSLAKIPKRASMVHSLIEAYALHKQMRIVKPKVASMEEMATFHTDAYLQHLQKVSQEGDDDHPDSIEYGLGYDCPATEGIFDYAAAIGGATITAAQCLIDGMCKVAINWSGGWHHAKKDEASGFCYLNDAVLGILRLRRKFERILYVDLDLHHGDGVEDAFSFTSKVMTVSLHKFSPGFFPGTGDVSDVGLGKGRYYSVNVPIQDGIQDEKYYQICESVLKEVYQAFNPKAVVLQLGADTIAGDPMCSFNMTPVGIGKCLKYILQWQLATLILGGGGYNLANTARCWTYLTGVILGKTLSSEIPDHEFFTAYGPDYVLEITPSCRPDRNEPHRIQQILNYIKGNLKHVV
Method: as §1

[4] = molecular target: Histone deacetylase 4 (Homo sapiens, UniProt P56524)
Histone deacetylase 4, sequence (P56524 whole entry): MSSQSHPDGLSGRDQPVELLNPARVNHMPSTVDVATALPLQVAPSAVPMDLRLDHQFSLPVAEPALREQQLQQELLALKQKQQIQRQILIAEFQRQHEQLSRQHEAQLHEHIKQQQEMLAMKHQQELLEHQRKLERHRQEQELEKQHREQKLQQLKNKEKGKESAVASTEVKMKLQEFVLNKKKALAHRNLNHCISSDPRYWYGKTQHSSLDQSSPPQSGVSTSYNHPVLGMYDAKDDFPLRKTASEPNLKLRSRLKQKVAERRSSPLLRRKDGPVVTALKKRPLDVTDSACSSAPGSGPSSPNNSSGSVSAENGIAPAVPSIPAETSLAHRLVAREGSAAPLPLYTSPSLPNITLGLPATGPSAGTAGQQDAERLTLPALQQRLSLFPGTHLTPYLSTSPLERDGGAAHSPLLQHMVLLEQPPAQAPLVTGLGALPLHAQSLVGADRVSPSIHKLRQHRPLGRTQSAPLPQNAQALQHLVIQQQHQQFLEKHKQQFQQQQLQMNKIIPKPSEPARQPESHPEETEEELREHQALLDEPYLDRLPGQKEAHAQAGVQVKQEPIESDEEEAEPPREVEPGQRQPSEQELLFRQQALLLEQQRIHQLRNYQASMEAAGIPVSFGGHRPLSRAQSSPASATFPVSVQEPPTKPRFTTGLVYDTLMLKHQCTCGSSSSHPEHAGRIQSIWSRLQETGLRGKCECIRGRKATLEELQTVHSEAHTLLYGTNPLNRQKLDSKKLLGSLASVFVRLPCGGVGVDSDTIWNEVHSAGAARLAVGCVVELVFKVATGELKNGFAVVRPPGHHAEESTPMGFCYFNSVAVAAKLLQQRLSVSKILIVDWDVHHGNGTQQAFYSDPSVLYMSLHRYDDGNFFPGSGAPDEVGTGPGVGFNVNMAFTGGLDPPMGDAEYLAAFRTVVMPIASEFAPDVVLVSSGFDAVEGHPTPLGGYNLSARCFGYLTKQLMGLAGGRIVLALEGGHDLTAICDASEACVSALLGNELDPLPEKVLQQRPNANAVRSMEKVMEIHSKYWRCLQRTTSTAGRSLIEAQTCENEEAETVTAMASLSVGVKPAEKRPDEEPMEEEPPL
Method: as §1

[5] = molecular target: T3, Histone deacetylase 7 (Homo sapiens, UniProt Q8WUI4)
T3 sequence (Q8WUI4 whole entry): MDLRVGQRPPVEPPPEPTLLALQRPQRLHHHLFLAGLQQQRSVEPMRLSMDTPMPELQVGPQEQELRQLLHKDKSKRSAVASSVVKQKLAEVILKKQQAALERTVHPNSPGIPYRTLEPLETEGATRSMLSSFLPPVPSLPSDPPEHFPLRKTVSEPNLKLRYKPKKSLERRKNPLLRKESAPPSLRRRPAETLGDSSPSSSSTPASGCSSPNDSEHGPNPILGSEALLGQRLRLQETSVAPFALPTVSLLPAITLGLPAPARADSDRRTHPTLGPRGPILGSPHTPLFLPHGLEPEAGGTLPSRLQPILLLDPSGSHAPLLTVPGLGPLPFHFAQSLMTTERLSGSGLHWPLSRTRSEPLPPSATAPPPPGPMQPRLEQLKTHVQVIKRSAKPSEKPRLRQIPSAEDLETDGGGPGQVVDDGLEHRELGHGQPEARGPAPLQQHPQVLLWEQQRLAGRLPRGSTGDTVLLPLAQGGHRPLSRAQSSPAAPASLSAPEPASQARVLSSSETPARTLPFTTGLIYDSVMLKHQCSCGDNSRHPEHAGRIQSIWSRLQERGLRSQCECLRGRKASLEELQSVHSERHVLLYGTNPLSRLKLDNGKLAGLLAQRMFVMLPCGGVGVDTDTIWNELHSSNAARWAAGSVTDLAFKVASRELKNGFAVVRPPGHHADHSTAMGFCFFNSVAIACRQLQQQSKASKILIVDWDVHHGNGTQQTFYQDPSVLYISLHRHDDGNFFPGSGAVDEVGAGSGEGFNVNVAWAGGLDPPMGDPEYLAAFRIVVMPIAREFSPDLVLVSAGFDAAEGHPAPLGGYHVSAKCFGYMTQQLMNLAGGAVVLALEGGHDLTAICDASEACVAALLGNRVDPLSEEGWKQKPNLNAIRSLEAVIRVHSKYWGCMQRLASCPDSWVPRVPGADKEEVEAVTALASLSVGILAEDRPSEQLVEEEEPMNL
Method: as §1

[6] = molecular target: Histone deacetylase 5 (Homo sapiens, UniProt Q9UQL6)
Histone deacetylase 5, sequence (Q9UQL6 whole entry): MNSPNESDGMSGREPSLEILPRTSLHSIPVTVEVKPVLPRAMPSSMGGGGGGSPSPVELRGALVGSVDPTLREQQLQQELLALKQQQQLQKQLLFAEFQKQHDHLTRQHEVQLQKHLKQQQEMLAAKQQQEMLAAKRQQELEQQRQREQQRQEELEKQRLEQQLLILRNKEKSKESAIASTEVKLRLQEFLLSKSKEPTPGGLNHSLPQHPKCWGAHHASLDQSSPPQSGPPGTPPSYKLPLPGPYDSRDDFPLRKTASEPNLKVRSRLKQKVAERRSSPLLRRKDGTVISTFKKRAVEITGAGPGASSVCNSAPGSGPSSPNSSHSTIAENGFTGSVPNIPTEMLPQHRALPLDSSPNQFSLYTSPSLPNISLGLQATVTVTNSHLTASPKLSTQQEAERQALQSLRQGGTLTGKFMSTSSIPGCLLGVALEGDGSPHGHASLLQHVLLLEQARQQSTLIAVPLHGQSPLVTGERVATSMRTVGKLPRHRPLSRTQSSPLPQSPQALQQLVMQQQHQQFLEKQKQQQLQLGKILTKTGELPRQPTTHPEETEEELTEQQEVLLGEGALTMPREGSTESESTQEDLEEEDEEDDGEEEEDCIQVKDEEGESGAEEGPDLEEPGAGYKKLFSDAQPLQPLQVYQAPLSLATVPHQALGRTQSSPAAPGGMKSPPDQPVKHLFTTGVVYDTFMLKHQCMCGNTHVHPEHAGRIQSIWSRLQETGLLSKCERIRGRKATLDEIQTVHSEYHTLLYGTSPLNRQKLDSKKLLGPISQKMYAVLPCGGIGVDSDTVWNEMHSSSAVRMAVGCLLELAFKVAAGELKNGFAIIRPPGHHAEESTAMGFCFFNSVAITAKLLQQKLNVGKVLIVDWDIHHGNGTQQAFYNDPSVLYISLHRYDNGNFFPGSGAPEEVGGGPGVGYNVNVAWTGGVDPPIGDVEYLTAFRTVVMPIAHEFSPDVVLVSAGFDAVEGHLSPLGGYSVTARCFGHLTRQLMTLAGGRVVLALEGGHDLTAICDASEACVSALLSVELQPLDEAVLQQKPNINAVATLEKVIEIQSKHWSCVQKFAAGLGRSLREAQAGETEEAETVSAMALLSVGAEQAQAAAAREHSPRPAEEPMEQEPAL
Method: as §1

Measured: IC50

CC(=O)Nc1ccc(C(=O)Nc2ccc(F)cc2N)cc1 [US12128018, Compound I-1]
> 30 µM: all assays above
